Measurements: patent publication US12447198B2, “Peptides and fragments for treating diabetes and associated metabolic diseases” (Betavive Ltd., priority 2021, dated 2025)

Tests used:
[1] = Blood level of total and free IGF-2 after 40 μg intraperitoneal injection (ELISA); format: in vivo, mouse; settings: 240 minute time frame
Description: Without being bound by this theory, it is believed that IGF-2 binding proteins may initially inactivate the biological activity of free IGF-2. And over time, the bond between IGF-2 and the binding protein may be released, increasing the bioavailability of IGF-2 and leading to a longer term effective treatment.

STZ-treated mice [2] = assay: Short term effects of a single IGF-2 injection on glucose and IGF-2 levels, 240 minute time course; format: in vivo, mouse
Experimental: More specifically, the top panel illustrates the drop in glucose blood levels in three STZ-treated mice after receiving a 800 μg/kg/day dose of IGF-2 over a 240 minute time course. […] IGF-2 is part of a complex system comprising IGF-1 and IGF-2 along with binding proteins, proteases and other interacting molecules. […] Normoglycemia is maintained while total serum IGF-2 is reduced to very low levels. […] Without being bound by this theory, it is believed that a slow release of IGF-2 from a serum complex can maintain normal blood glucose levels.

STZ-treated mice [3] = assay: Serum insulin and c-peptide levels four weeks after IGF-2 treatment; format: in vivo, mouse; settings: four weeks post treatment
Experimental: Fasting blood glucose levels (mg/dL) were determined using the Accu-Chek Performa glucometer (Roche Diagnostics, Mannheim, Germany). After approximately two weeks of stable hyperglycemia, C57BL/6 STZ mice received exogenous injections of recombinant human IGF-2 (0.3-12 mg/kg/day injection) intraperitoneally for 5-10 consecutive days. During post-treatment follow-up period and upon termination, mice were tested for: fasting glucose, body weight, glucose tolerance test (IPGTT), serum C-peptide level, serum insulin level, and full blood and histological analysis (CBC, Chemistry, Insulin IHC and H&E).
C-peptide is a biomarker used to assess pancreatic beta cell function and is normally produced in equimolar amounts to endogenous insulin. Leighton et al., A Practical Review of C-Peptide Testing in Diabetes, Diabetes Ther. 2017 June; 8 (3): 475-487.

STZ-treated mice [4] = assay: Intraperitoneal glucose tolerance test 50 days post-treatment; format: in vivo, mouse
Experimental: In this experiment, four STZ-treated mice were treated with 12,000 μg/kg/day of IGF-2 (four injections of 3000 μg/kg/day) 5 days and two mice were treated for 10 days. A glucose tolerance test was performed 50 days post-treatment with IGF-2 by challenging the treated mice with a 2 grams/kg dose of glucose and determining the blood glucose level over a 180 minute time course. The blood glucose curves of the treated mice were compared to results for a saline control, and normal (nondiabetic) obese and normal (nondiabetic) lean mice based on published literature (Jorgensen et al., J. Am Assoc. Lab. Animal Sci 2017 56(1): 95-97).

STZ-treated mice [5] = assay: Pancreas histology and insulin immunohistochemical staining of islets; format: in vivo, mouse
Experimental: FIG. 21 depicts pancreas histology results on STZ-treated mice. […] The non-control mice were treated once a day for 10 days with a 3000 μg/kg dose of IGF-2. The mice were sacrificed on day 35 and pancreas cells were assessed as being insulin positive or negative.

db/db mice [6] = assay: 14 hour fasting blood glucose in db/db mice treated with IGF-2; format: in vivo, mouse
Experimental: db/db mice are bred to have a leptin deficiency, increasing susceptibility of the mice to obesity, insulin resistance, and type 2 diabetes (T2D).
In this experiment, one group of db/db mice was injected with 3000 μg/kg/day of IGF-2 for 68 days, a second group of db/db mice was injected with 12000 μg/kg/day of IGF-2 for 66 days, and a third group of db/db mice was injected with saline once a day for 68 days.
In one experiment (left panel), one group of db/db mice was injected with a daily dose of 12000 μg/kg of IGF-2 divided in two injections per day for 70 days, while another group of db/db mice was injected with saline. […] In another experiment (right panel), one group of db/db mice was injected with a daily dose of 12000 μg/kg of IGF-2 divided in two injections per day for 35 days, while another group of db/db mice was injected with saline.
In one exemplary experiment, db/db mice were treated with a 12,000 μg/kg daily dose for 70 days with 70 days of follow up (during which IGF-2 was not administered). All the treated mice maintained normoglycemia for at least 50 days following treatment. In another exemplary experiment, db/db mice were treated with a 12,000 μg/kg daily dose for 35 days with 35 days of follow up (during which IGF-2 was not administered). All the treated mice maintained normoglycemia for 35 days following treatment.

db/db mice [7] = assay: Serum insulin in db/db mice after long-term IGF-2 treatment; format: in vivo, mouse; settings: 12,000 μg/kg daily dose for 68 days, measured 6.5 weeks after the end of treatment
Experimental: In this experiment, one group of db/db mice (labeled FA X1) was injected with 3000 μg/kg of IGF-2 once a day for 68 days, a second group of db/db mice (labeled FA X4) was injected with a daily dose of 12000 μg/kg of IGF-2 divided in two injections per day for 68 days, and a third group of db/db mice was injected with saline. Serum insulin levels were measured 6.5 weeks after the end of the 68 day treatment. Treatment with the 12,000 μg/kg daily dose increased serum insulin levels by about 50% with respect to the control.

NOD mice = assay: Islet cell staining for glucagon and insulin in NOD mice; format: in vivo, mouse; settings: NOD mice treated with IGF-2 for 13 weeks
β-MIN6 cells = assay: Cell count (cell proliferation) of β-MIN6 cells; format: cell-based, mouse; settings: 5 nM, 20 nM, 80 nM, 1 week treatment
Description: β-MIN6 cells serve as an in vitro model of mouse pancreatic islets. β-MIN6 cells were used as an in vitro model to measure the effects of treatment with IGF-2.

STZ-treated mouse islets = assay: Insulin secretion from STZ-treated mouse islets; format: cell-based; settings: islets treated with 2.5 mM STZ; 48 hours after treatment; IGF-2 50 nM and 500 nM, GLP-1 100 nM and 1000 nM
Experimental: Mouse islet cells were treated with 2.5 mM STZ and subsequently treated with either IGF-2 (FA) at 50 nM and 500 nM, or with GLP-1 at 100 nM and 1000 nM.

[8] = Safety/toxicity: pathology of blood samples and tissue samples from thirty organs; format: in vivo; settings: end of 10 days of treatment, 24 days after termination, and 100 days after termination of 30 days of treatment

insulin-like growth factor 2 [IGF-2]
peak free IGF-2 in the blood [1]: 1 µg | peak total concentration of IGF-2 total in the blood [1]: about 16 μg | free IGF-2 levels relative to total IGF-2 (STZ-treated mice [2]; 800 μg/kg dose, 240 minute time course): a small fraction of the total IGF-2 concentration | period for which the normal blood glucose level lasts (STZ-treated mice [2]; single 800 μg/kg dose intraperitoneally): over four hours | blood glucose level reached (normal level) (STZ-treated mice [2]; single 800 μg/kg dose intraperitoneally, from hyperglycemic levels of 300-500 mg/dl): 100 to 200 mg/dL | increase in c-peptide levels (STZ-treated mice [3]; four STZ-treated mice): 12 fold | increase of serum insulin compared to STZ treated control mice (STZ-treated mice [3]; permanently cured mice): 50% | number of IGF-2-treated mice permanently cured (STZ-treated mice [4]; 12,000 μg/kg/day, four mice 5 days and two mice 10 days): Five | glucose levels in the glucose tolerance test (STZ-treated mice [4]; 2 grams/kg glucose, 50 days post-treatment, Mouse O1, not permanently cured): higher than the normal obese mouse | response to the glucose tolerance test (blood glucose over 180 minutes) (STZ-treated mice [4]; 2 grams/kg glucose, 50 days post-treatment, the five permanently cured mice): fell between the glucose tolerance results from the literature for non-diabetic obese mice and non-diabetic lean mice | number of functional beta cells (STZ-treated mice [5]; 3000 μg/kg once a day for 10 days, sacrificed on day 35, permanently cured mice): almost four fold increase | number of cells that test positive for insulin (STZ-treated mice [5]; 3000 μg/kg once a day for 10 days, sacrificed on day 35, permanently cured vs non-permanently cured and saline control): significant increase | level of insulin in pancreas islets as compared to a naïve mouse (immunohistochemical staining) (STZ-treated mice [5]; non-permanently cured mouse): lower level of insulin in its pancreas islets | level of insulin in pancreas islets as compared to a naïve mouse (immunohistochemical staining) (STZ-treated mice [5]; permanently cured mouse): higher level of insulin in its pancreas islets | time following treatment for which all the treated mice maintained normoglycemia (db/db mice [6]; 12,000 μg/kg daily dose for 35 days, 35 days of follow up): 35 days | time following treatment for which all the treated mice maintained normoglycemia (db/db mice [6]; 12,000 μg/kg daily dose for 70 days, 70 days of follow up): at least 50 days | 14 hour fasting blood glucose levels (db/db mice [6]; FIG. 25 left panel, 12000 μg/kg daily in two injections per day for 70 days): reduced blood glucose levels (14 hour fasting blood glucose levels) to a normal range | 14 hour fasting blood glucose levels (db/db mice [6]; FIG. 25 right panel, 12000 μg/kg daily in two injections per day for 35 days): reduced blood glucose levels (14 hour fasting blood glucose levels) to a normal range | 14 hour fasting blood glucose levels (db/db mice [6]; first group of db/db mice (FIG. 23), 3000 μg/kg/day for 68 days): reduced blood glucose levels (14 hour fasting blood glucose levels) to a normal range | 14 hour fasting blood glucose levels (db/db mice [6]; first group of db/db mice (FIG. 23), 12000 μg/kg/day for 66 days): reduced blood glucose levels (14 hour fasting blood glucose levels) to a normal range | 14 hour fasting blood glucose levels (db/db mice [6]; second group of db/db mice (FIG. 24), 12,000 μg/kg/day, 68 day treatment period): reduced blood glucose levels (14 hour fasting blood glucose levels) to a normal range | increase of serum insulin levels with respect to the control (db/db mice [7]): about 50% | islet cells, histological staining for glucagon and insulin (NOD mice): fully functional islet cells | cell count (cell proliferation) (β-MIN6 cells): increases cell proliferation in a dose-dependent manner | insulin secretion (STZ-treated mouse islets): increased in a dose dependent manner | pathologies related to treatment in blood samples and tissue samples from thirty organs [8]: No pathologies were identified
